The source made the active and inactive calls. No cut-off for these calls is given here.
Legend:
[1] = target: T1, ATP-dependent translocase ABCB1 (Homo sapiens, UniProt P08183); experiment: Inhibition of ABCB1 (unknown origin) expressed in Flp-In-293 cells assessed as increase in calcein-AM uptake at 5 uM preincubated for 30 mins followed by calcein-AM addition measured after 30 mins by fluorescence spectrometric method relative to control; type: cell-based; conditions: 0.5 h
Homo sapiens [2] = species on record: Homo sapiens; experiment: Inhibition of P-gp in human HeLaS3 cells assessed as potentiation of paclitaxel-induced cytotoxicity by SRB assay; type: cell-based
[3] = target: T1, ATP-dependent translocase ABCB1; experiment: Inhibition of ABCB1 (unknown origin) expressed in human Flp-In-293 cells assessed as potentiation of vincristine-induced cytotoxicity at 1 uM by SRB assay relative to control; type: cell-based
Homo sapiens [4] = species on record: Homo sapiens; experiment: Inhibition of P-gp in human KBVIN cells assessed as potentiation of paclitaxel-induced cytotoxicity at 1 uM by SRB assay relative to control; type: cell-based
HEK293 [5] = experiment: Effect on ABCB1 mRNA expression in human Flp-In-293 cells at 5 uM after 72 hrs by qRT-PCR method; type: functional, cell-based
HEK293 [6] = experiment: Cytotoxicity against human Flp-In-293 cells expressing MDR1 assessed as reduction in cell viability by SRB assay; type: ADME, cell-based
HEK293 [7] = experiment: Potentiation of doxorubicin-induced cytotoxicity against human Flp-In-293 cells at 1 uM by SRB assay relative to control; type: functional
Homo sapiens [8] = species on record: Homo sapiens; experiment: Inhibition of P-gp in human HeLaS3 cells assessed as potentiation of doxorubicin-induced cytotoxicity at 2.5 uM by SRB assay relative to control; type: cell-based
Homo sapiens [9] = species on record: Homo sapiens; experiment: Inhibition of P-gp in human KBVIN cells assessed as potentiation of paclitaxel-induced cytotoxicity by SRB assay; type: cell-based
HEK293 [10] = experiment: Cytotoxicity against human Flp-In-293 cells assessed as reduction in cell viability by SRB assay; type: cell-based
Homo sapiens [11] = species on record: Homo sapiens; experiment: Inhibition of P-gp in human KBVIN cells assessed as potentiation of doxorubicin-induced cytotoxicity at 1 uM by SRB assay relative to control; type: cell-based
HEK293 [12] = experiment: Potentiation of paclitaxel-induced cytotoxicity against human Flp-In-293 cells at 2.5 uM by SRB assay relative to control; type: functional
Homo sapiens [13] = species on record: Homo sapiens; experiment: Inhibition of P-gp in human KBVIN cells assessed as potentiation of vincristine-induced cytotoxicity by SRB assay; type: cell-based
[14] = target: T1, ATP-dependent translocase ABCB1; experiment: Inhibition of ABCB1 (unknown origin) expressed in human Flp-In-293 cells assessed as potentiation of doxorubicin-induced cytotoxicity at 1 uM by SRB assay relative to control; type: cell-based
Homo sapiens [15] = species on record: Homo sapiens; experiment: Inhibition of P-gp in human HeLaS3 cells assessed as potentiation of vincristine-induced cytotoxicity at 1 uM by SRB assay relative to control; type: cell-based
Homo sapiens [16] = species on record: Homo sapiens; experiment: Inhibition of P-gp in human HeLaS3 cells assessed as potentiation of vincristine-induced cytotoxicity at 2.5 uM by SRB assay relative to control; type: cell-based
Homo sapiens [17] = species on record: Homo sapiens; experiment: Inhibition of P-gp in human KBVIN cells assessed as potentiation of doxorubicin-induced cytotoxicity by SRB assay; type: cell-based
Homo sapiens [18] = species on record: Homo sapiens; experiment: Inhibition of P-gp in human KBVIN cells assessed as potentiation of vincristine-induced cytotoxicity at 2.5 uM by SRB assay relative to control; type: cell-based
HEK293 [19] = experiment: Potentiation of vincristine-induced cytotoxicity against human Flp-In-293 cells at 2.5 uM by SRB assay relative to control; type: functional
[20] = Cytotoxicity against human KBVIN assessed as reduction in cell viability by SRB assay; type: cell-based
Homo sapiens [21] = species on record: Homo sapiens; experiment: Inhibition of P-gp in human KBVIN cells assessed as potentiation of paclitaxel-induced cytotoxicity at 2.5 uM by SRB assay relative to control; type: cell-based
[22] = target: T1, ATP-dependent translocase ABCB1; experiment: Inhibition of ABCB1 (unknown origin) expressed in human Flp-In-293 cells assessed as potentiation of paclitaxel-induced cytotoxicity by SRB assay; type: cell-based
HEK293 [23] = experiment: Potentiation of doxorubicin-induced cytotoxicity against human Flp-In-293 cells at 2.5 uM by SRB assay relative to control; type: functional
Homo sapiens [24] = species on record: Homo sapiens; experiment: Inhibition of P-gp in human HeLaS3 cells assessed as potentiation of paclitaxel-induced cytotoxicity at 1 uM by SRB assay relative to control; type: cell-based
HEK293 [25] = experiment: Potentiation of vincristine-induced cytotoxicity against human Flp-In-293 cells at 1 uM by SRB assay relative to control; type: functional
[26] = target: T1, ATP-dependent translocase ABCB1; experiment: Inhibition of ABCB1 (unknown origin) expressed in human Flp-In-293 cells assessed as potentiation of paclitaxel-induced cytotoxicity at 1 uM by SRB assay relative to control; type: cell-based
[27] = target: T1, ATP-dependent translocase ABCB1; experiment: Inhibition of ABCB1 (unknown origin) expressed in human Flp-In-293 cells assessed as potentiation of doxorubicin-induced cytotoxicity at 2.5 uM by SRB assay relative to control; type: cell-based
Homo sapiens [28] = species on record: Homo sapiens; experiment: Inhibition of P-gp in human HeLaS3 cells assessed as potentiation of paclitaxel-induced cytotoxicity at 2.5 uM by SRB assay relative to control; type: cell-based
HeLa S3 = experiment: Cytotoxicity against human HeLaS3 assessed as reduction in cell viability by SRB assay; type: cell-based
[29] = target: T1, ATP-dependent translocase ABCB1; experiment: Inhibition of ABCB1 (unknown origin) expressed in human Flp-In-293 cells assessed as potentiation of vincristine-induced cytotoxicity by SRB assay; type: cell-based
[30] = target: T1, ATP-dependent translocase ABCB1; experiment: Inhibition of ABCB1 (unknown origin) expressed in human Flp-In-293 cells assessed as potentiation of paclitaxel-induced cytotoxicity at 2.5 uM by SRB assay relative to control; type: cell-based
HEK293 [31] = experiment: Effect on ABCB1 mRNA expression in human Flp-In-293 cells expressing ABCB1 at 5 uM after 72 hrs by qRT-PCR method; type: functional, cell-based
[32] = target: T1, ATP-dependent translocase ABCB1; experiment: Inhibition of ABCB1 (unknown origin) expressed in human Flp-In-293 cells assessed as potentiation of doxorubicin-induced cytotoxicity by SRB assay; type: cell-based
[33] = target: T1, ATP-dependent translocase ABCB1; experiment: Inhibition of ABCB1 (unknown origin) expressed in Flp-In-293 cells assessed as increase in calcein-AM uptake at 10 uM preincubated for 30 mins followed by calcein-AM addition measured after 30 mins by fluorescence spectrometric method relative to control; type: cell-based; conditions: 0.5 h
Homo sapiens [34] = species on record: Homo sapiens; experiment: Inhibition of P-gp in human HeLaS3 cells assessed as potentiation of vincristine-induced cytotoxicity by SRB assay; type: cell-based
HEK293 [35] = experiment: Potentiation of paclitaxel-induced cytotoxicity against human Flp-In-293 cells at 1 uM by SRB assay relative to control; type: functional
Homo sapiens [36] = species on record: Homo sapiens; experiment: Inhibition of P-gp in human KBVIN cells assessed as potentiation of doxorubicin-induced cytotoxicity at 2.5 uM by SRB assay relative to control; type: cell-based
Homo sapiens [37] = species on record: Homo sapiens; experiment: Inhibition of P-gp in human KBVIN cells assessed as potentiation of vincristine-induced cytotoxicity at 1 uM by SRB assay relative to control; type: cell-based
Homo sapiens [38] = species on record: Homo sapiens; experiment: Inhibition of P-gp in human HeLaS3 cells assessed as potentiation of doxorubicin-induced cytotoxicity by SRB assay; type: cell-based
[39] = target: T1, ATP-dependent translocase ABCB1; experiment: Potency index, ratio of compound effect to verapamil effect for inhibition of ABCB1 (unknown origin) expressed in Flp-In-293 cells assessed as increase in calcein-AM uptake at 5 uM preincubated for 30 mins followed by calcein-AM addition measured after 30 mins by fluorescence spectrometric method; type: cell-based; conditions: 0.5 h
Homo sapiens [40] = species on record: Homo sapiens; experiment: Inhibition of P-gp in human HeLaS3 cells assessed as potentiation of doxorubicin-induced cytotoxicity at 1 uM by SRB assay relative to control; type: cell-based
[41] = target: T1, ATP-dependent translocase ABCB1; experiment: Inhibition of ABCB1 (unknown origin) expressed in human Flp-In-293 cells assessed as potentiation of vincristine-induced cytotoxicity at 2.5 uM by SRB assay relative to control; type: cell-based

T1 sequence (P08183 whole entry): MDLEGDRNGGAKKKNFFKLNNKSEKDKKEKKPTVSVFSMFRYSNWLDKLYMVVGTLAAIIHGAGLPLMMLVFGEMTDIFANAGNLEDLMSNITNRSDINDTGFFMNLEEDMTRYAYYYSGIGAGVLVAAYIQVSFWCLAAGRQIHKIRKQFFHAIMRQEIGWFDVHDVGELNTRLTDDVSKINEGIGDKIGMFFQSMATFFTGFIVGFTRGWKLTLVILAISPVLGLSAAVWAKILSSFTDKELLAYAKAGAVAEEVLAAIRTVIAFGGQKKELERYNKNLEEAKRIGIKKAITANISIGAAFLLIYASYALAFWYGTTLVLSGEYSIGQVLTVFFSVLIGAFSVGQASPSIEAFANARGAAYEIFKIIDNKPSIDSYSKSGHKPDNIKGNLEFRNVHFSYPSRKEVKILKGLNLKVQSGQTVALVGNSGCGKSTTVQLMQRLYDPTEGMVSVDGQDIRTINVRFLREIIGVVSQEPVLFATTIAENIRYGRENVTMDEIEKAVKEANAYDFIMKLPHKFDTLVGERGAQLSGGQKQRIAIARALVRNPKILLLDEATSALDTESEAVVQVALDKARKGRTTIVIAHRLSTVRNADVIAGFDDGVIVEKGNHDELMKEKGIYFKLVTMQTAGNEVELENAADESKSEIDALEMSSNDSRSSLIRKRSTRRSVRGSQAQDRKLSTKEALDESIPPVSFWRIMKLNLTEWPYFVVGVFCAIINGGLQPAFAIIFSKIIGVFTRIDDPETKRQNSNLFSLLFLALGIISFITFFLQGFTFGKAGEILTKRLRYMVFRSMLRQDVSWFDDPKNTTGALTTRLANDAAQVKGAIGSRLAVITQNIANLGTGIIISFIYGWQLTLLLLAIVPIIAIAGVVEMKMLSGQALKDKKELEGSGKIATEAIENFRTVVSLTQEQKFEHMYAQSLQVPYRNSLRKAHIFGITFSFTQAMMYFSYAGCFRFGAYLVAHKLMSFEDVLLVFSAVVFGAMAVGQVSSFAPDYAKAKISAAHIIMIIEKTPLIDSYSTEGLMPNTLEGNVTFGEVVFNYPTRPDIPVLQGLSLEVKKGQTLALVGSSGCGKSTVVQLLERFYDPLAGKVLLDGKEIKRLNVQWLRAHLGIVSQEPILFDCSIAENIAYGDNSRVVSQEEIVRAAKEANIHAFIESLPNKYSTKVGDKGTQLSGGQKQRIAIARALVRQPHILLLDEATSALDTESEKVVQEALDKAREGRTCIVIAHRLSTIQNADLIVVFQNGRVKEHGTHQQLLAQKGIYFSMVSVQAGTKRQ

CCN(CC)CCOc1cc(-c2ccc(OC)c(OC)c2)cc2oc(N)c(-c3cccs3)c12
fold change (FC) [1]: 11.12 | inhibition (Homo sapiens [2]): Dose-dependent effect | fold change (FC) [3]: 3.37 | fold change (FC) (Homo sapiens [4]): 5.11 | Activity (HEK293 [5]): inactive | IC50 (HEK293 [6]): 31.2 µM | fold change (FC) (HEK293 [7]): 1.03 | fold change (FC) (Homo sapiens [8]): 0.93 | inhibition (Homo sapiens [9]): Dose-dependent effect | IC50 (HEK293 [10]): 34.9 µM | fold change (FC) (Homo sapiens [11]): 1.39 | fold change (FC) (HEK293 [12]): 1.47 | inhibition (Homo sapiens [13]): Dose-dependent effect | fold change (FC) [14]: 3.17 | fold change (FC) (Homo sapiens [15]): 1.23 | fold change (FC) (Homo sapiens [16]): 1.21 | inhibition (Homo sapiens [17]): Dose-dependent effect | fold change (FC) (Homo sapiens [18]): 246 | fold change (FC) (HEK293 [19]): 8.57 | IC50 [20]: 18.5 µM | fold change (FC) (Homo sapiens [21]): 38.7 | inhibition (INH) [22]: Dose-dependent effect | fold change (FC) (HEK293 [23]): 1.09 | fold change (FC) (Homo sapiens [24]): 5.49 | fold change (FC) (HEK293 [25]): 7.01 | fold change (FC) [26]: 2.49 | fold change (FC) [27]: 26.43 | fold change (FC) (Homo sapiens [28]): 3.85 | IC50 (HeLa S3): 21.5 µM | inhibition (INH) [29]: Dose-dependent effect | fold change (FC) [30]: 13.68 | Activity (HEK293 [31]): inactive | inhibition (INH) [32]: Dose-dependent effect | fold change (FC) [33]: 11.34 | inhibition (Homo sapiens [34]): Dose-dependent effect | fold change (FC) (HEK293 [35]): 1.35 | fold change (FC) (Homo sapiens [36]): 5.16 | fold change (FC) (Homo sapiens [37]): 240 | inhibition (Homo sapiens [38]): Dose-dependent effect | Ratio [39]: 3.6 | fold change (FC) (Homo sapiens [40]): 0.8 | fold change (FC) [41]: 17.95

COc1ccc(-c2cc(OCCN3CCCC3)c3c(-c4cccs4)c(N)oc3c2)cc1
fold change (FC) [1]: 6.78 | inhibition (Homo sapiens [2]): Dose-dependent effect | fold change (FC) [3]: 2.58 | fold change (FC) (Homo sapiens [4]): 2.8 | Activity (HEK293 [5]): inactive | IC50 (HEK293 [6]): 36.4 µM | fold change (FC) (HEK293 [7]): 0.98 | fold change (FC) (Homo sapiens [8]): 1.47 | inhibition (Homo sapiens [9]): Dose-dependent effect | IC50 (HEK293 [10]): 33.5 µM | fold change (FC) (Homo sapiens [11]): 1.37 | fold change (FC) (HEK293 [12]): 1.39 | inhibition (Homo sapiens [13]): Dose-dependent effect | fold change (FC) [14]: 2.65 | fold change (FC) (Homo sapiens [15]): 1.08 | fold change (FC) (Homo sapiens [16]): 1.13 | inhibition (Homo sapiens [17]): Dose-dependent effect | fold change (FC) (Homo sapiens [18]): 260 | fold change (FC) (HEK293 [19]): 7.15 | IC50 [20]: 35.5 µM | fold change (FC) (Homo sapiens [21]): 14.7 | inhibition (INH) [22]: Dose-dependent effect | fold change (FC) (HEK293 [23]): 0.97 | fold change (FC) (Homo sapiens [24]): 3.69 | fold change (FC) (HEK293 [25]): 1.95 | fold change (FC) [26]: 1.18 | fold change (FC) [27]: 6.14 | fold change (FC) (Homo sapiens [28]): 4.06 | IC50 (HeLa S3): 38.1 µM | inhibition (INH) [29]: Dose-dependent effect | fold change (FC) [30]: 10.03 | Activity (HEK293 [31]): inactive | inhibition (INH) [32]: Dose-dependent effect | fold change (FC) [33]: 10.4 | inhibition (Homo sapiens [34]): Dose-dependent effect | fold change (FC) (HEK293 [35]): 0.98 | fold change (FC) (Homo sapiens [36]): 1.94 | fold change (FC) (Homo sapiens [37]): 177 | inhibition (Homo sapiens [38]): Dose-dependent effect | fold change (FC) (Homo sapiens [40]): 1.1 | fold change (FC) [41]: 9.07

Reference: ChEMBL document CHEMBL4041509, “Structure-activity relationship study of novel 2-aminobenzofuran derivatives as P-glycoprotein inhibitors” (Eur J Med Chem, 2017)
